According to patent US20060264414A1, “Fluorous 2,2'-bipyridines and fluorinated biphasic sysems for ligand design” (The Board of Regents, University and Community College …, priority 2005, published 2006):
Where two headings read alike, the source gives them in different places. Marks after values point to notes of the source that are not given here.

Legend:
[1] = Fluorous partition coefficient, CF3C6F11/toluene, GLC method; format: physicochemical; details: 1:1 v/v perfluoromethylcyclohexane and toluene
Excerpt: Fluorous partition coefficients (FPCs) were obtained for 1-4 for a 1:1 v/v biphasic mixture of “fluorous” solvent perfluoromethylcyclohexane, CF3C6F11 and toluene.

[2] = value from ref. 13; cited from earlier work
[3] = Cyclic voltammetry reduction potentials; format: physicochemical; details: THF; for ΔEp: scan rate 10 V/sec, TBAPF6; for E1/2: vs. SCE, 10 μm Pt ultramicroelectrode
Excerpt: THF was found suitable for this study as 1-3 have sufficient solubility and the electrochemical potential window (+1.2 V to −3 V vs. SCE) extends to the potential range of interest.

[4] = in DMF, known values; cited from earlier work
[5] = tested on: Breast Cancer Cells (DC4 and DB-46); assay: Survival studies (Clonogenic Assay); format: cell-based; details: 10 micromolar Pt agent, DC4 and DB-46 cells
Excerpt: Plots are appended to this document that provide viable cells vs. concentration of Pt agent.

Compound | FPC = Cbpy(CF3C6F11)/Cbpy(toluene) [1] | ΔEp [3] [mV] | E1/2 [3] [V] | reduction potential [4] [V] | further results
FC(F)(F)C(F)(F)C(F)(F)C(F)(F)C(F)(F)C(F)(F)C(F)(F)C(F)(F)C(F)(F)C(F)(F)CCCc1ccnc(-c2cc(CCCC(F)(F)C(F)(F)C(F)(F)C(F)(F)C(F)(F)C(F)(F)C(F)(F)C(F)(F)C(F)(F)C(F)(F)F)ccn2)c1 [Ligand 4] | 11 |  |  |  | fi = fluorophilicity = ln[FPC] [1]: +2.4
FC(F)(F)C(F)(F)C(F)(F)C(F)(F)C(F)(F)C(F)(F)C(F)(F)C(F)(F)CCCCc1ccnc(-c2cc(CCCCC(F)(F)C(F)(F)C(F)(F)C(F)(F)C(F)(F)C(F)(F)C(F)(F)C(F)(F)F)ccn2)c1 [—(CH2)4Rf8, 4,4′-di-[(CH2)4(CF2)7CF3]-2,2′-bipyridine] |  |  |  |  | FPC = Cbpy(CF3C6F11)/Cbpy(toluene) [2]: 0.67^c; fi = fluorophilicity = ln[FPC] [2]: −0.40^c
CCCCCCCCCc1ccnc(-c2cc(CCCCCCCCC)ccn2)c1 [—(CH2)8CH3] | no compound in the CF3C6F11 layer | 299 | −2.501 |  | 
Cc1ccnc(-c2cc(C)ccn2)c1 [—CH3, 4,4′-dimethyl-2,2′-bipyridine] | no compound in the CF3C6F11 layer | 253 | −2.493 | −2.68 | 
c1ccc(-c2ccccn2)nc1 [—H, 2,2′-bipyridine] |  |  |  | −2.60 | 
[4,4′-Bis(4,4,4-trifluorobutyl)-2,2′-bipyridine]PtCl2 [Complex 1] |  |  |  |  | colonies surviving / survival [5]: around 2%
